This note sets out measurements from PMC6131539, “Behavioral Effects of a Potential Novel TAAR1 Antagonist” (Frontiers in Pharmacology, 2018).

The test system of assay [1] is WT littermates (C57BL/6J × 129S2/Sv). Put plainly: Cocaine-induced locomotor activity, co-injection, WT littermates. Format: in vivo, mice. The note with it: 5, 15 and 25 mg/kg co-injected with cocaine 10 mg/kg. How it is done: (§1) The Taarl^-/- (TAAR1-KO) mice were obtained from Lundbeck ([Wolinsky et al., 2007]). All wild type (WT) and TAAR1-KO mice used for experiments were generated from TAAR1-KO heterozygous mice in a C57BL/6J x 129S1/Sv mixed background.
(§2) Experimentally naïve mice, of at least 12 weeks of age, were used for all behavioral experiments. The mice were randomly assigned to treatment or control groups, balanced by sex and weight. Locomotor activity was assessed using the automated locomotor analysis monitors (Omnitech Electronics, Columbus, OH, United States). The apparatus included four open field monitors. Each Open Field monitor consisted of sets of 16 light beams arrayed in the horizontal X and Y axes. The hardware detected beams broken by the animal, which allowed the software to determine the location of the mouse in the cage. Total distance covered by mice was used to characterize locomotor activity of the animals. The monitors were divided into four compartments (20 cm × 20 cm). Animals were tested individually for defined periods with 5-min intervals. The mice were first weighed and then placed into the apparatus, allowing for 30 min habituation. […] The locomotor activity was then measured for additional 1 h. […]
The locomotor activity was assessed for 60 min following the injection. […]

Assay [2] concerns TAAR1-KO mice. Put plainly: Stereotypic counts, co-injection with cocaine, TAAR1-KO mice. Format: in vivo. As to conditions: 5, 15 and 25 mg/kg co-injected with cocaine 10 mg/kg. How it is done:
as §2
Supplementary file Image_2.TIF: FIGURE S2 In vivo studies with TAAR1-KO mice and compound 22 on stereotypic counts activity. […] The sum of stereotypic counts was assessed over 60 min after the injection of amphetamine and compound 22 in WT (solid bars) or TAAR1-KO mice (spotted bars). […] The sum of stereotypic counts was assessed over 60 min following the injection in WT (solid bars) or TAAR1-KO mice (dotted bars). […]

For assay [3], the system named is TAAR1-KO mice. Kind of assay: Amphetamine-induced locomotor activity, co-injection, TAAR1-KO mice. The assay is classed as in vivo. The note with it: 15 mg/kg co-injected with amphetamine 2 mg/kg, p = 0.004. How it is done: as §1
Experimentally naïve mice, of at least 12 weeks of age, were used for all behavioral experiments. The mice were randomly assigned to treatment or control groups, balanced by sex and weight. Locomotor activity was assessed using the automated locomotor analysis monitors (Omnitech Electronics, Columbus, OH, United States). The apparatus included four open field monitors. Each Open Field monitor consisted of sets of 16 light beams arrayed in the horizontal X and Y axes. The hardware detected beams broken by the animal, which allowed the software to determine the location of the mouse in the cage. Total distance covered by mice was used to characterize locomotor activity of the animals. The monitors were divided into four compartments (20 cm × 20 cm). Animals were tested individually for defined periods with 5-min intervals. The mice were first weighed and then placed into the apparatus, allowing for 30 min habituation. Following the habituation, the mice were removed from the al apparatus and injected with drugs (see below for administration) or vehicle and returned immediately to the locomotor chamber.

A further assay deals with Dopamine Transporter (Homo sapiens, UniProt Q01959). Put plainly: Fluorescent dopamine uptake assay in HEK293 cells stably expressing human HA-DAT. Format: cell-based. The arrangement: expressed in transfected cells. How it is done: Fluorescent dopamine uptake assay kits were purchased from Molecular Devices (Sunnyvale, CA; catalog #: R6138). Stable cells expressing human HA-DAT were seeded on poly-D-lysine treated, black clear-bottom 96-well plates (Corning Catalog #: 3603) at a density of 1 × 10^5 cells/well, and incubated for 24 h prior to the start of the uptake experiment. […] The plates were then incubated for 30 min at 37°C. Following incubation, 100 μL of dye solution was added and fluorescence intensity was measured for 30 min at 37°C using the SpectraMax M3 (Molecular Devices, excitation: 440 nm, emission: 520 nm). The rate of reaction (slope of the curve in the linear range) was taken as the readout for the assay.
Data analyses were performed with Graphpad Prism 5.01 (GraphPad Software, Inc., La Jolla, CA). Linear regression analysis was used to quantify fluorescent dopamine transporter uptake activity. Dose response curves were fitted with non-linear curve fitting. Two-tailed Student’s t-tests or one-way ANOVA analysis with Dunnett’s post hoc correction was used where appropriate to determine differences between data sets.
The ability of compound 22 to directly disrupt uptake activity was assessed with a fluorescent uptake assay.
Error bars represent standard error of mean at N = 3.

Sequence of Dopamine Transporter (Q01959 with tags, fused parts or gaps H193Y/G195Y/DEL197-198/G199V/D200P/S201D/S202Y/G203A): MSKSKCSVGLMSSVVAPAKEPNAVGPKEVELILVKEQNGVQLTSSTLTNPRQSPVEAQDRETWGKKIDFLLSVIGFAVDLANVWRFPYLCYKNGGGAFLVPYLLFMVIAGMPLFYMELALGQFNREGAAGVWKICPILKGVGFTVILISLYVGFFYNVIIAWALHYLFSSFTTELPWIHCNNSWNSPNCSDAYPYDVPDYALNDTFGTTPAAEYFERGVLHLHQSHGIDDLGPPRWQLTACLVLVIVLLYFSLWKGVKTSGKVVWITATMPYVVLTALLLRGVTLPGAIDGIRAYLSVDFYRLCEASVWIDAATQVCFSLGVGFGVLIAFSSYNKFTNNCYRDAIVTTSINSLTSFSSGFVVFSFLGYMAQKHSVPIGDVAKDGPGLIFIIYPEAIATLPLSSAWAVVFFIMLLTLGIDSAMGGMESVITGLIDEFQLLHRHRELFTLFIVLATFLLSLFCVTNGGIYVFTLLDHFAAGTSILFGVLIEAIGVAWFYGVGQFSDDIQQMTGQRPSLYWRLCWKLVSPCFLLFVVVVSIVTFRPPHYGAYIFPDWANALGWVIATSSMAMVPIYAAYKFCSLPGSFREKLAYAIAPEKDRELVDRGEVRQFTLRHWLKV

Take `Clc1ccc(CNCc2ccc(Cn3cncn3)cc2)c(Cl)c1` [compound 22]: in assay [1], the “effect on locomotor stimulating effects of cocaine” value is “significantly potentiate”. Further, the stereotypic counts result in the assay on TAAR1-KO mice [2] is “significant increases in stereotypic counts”. Further, the “potentiation of locomotor stimulating effects of amphetamine” value in the assay with TAAR1-KO mice [3] was 84%. Besides, the “effect on dopamine uptake activity” value at Dopamine Transporter (HEK293 cells stably expressing human HA-DAT, increasing doses) was “no effect on dopamine uptake activity”. For the same compound, the “effect on cocaine dose response inhibition of dopamine uptake” value on Dopamine Transporter (co-treatment with 1, 10 and 100 μM compound 22) is recorded as “did not alter”.
